Assay results as given in paper PMC10876487 (Synthetic and Systems Biotechnology, 2024).

Target: T1, ALDH-40 (Bacillus subtilis, UniProt P94358)
T1 sequence (P94358 1-485): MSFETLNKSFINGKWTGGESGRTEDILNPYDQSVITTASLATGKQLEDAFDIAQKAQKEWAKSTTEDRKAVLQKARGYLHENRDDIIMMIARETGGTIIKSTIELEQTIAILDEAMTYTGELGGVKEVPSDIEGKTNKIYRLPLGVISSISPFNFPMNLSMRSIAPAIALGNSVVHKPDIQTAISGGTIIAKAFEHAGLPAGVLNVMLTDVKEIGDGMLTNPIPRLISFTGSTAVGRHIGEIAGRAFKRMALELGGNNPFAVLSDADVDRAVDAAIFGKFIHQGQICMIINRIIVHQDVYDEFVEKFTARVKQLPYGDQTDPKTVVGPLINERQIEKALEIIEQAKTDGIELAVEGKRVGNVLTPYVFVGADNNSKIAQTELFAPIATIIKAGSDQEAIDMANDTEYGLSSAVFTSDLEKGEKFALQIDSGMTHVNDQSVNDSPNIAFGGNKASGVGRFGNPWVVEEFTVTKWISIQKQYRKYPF
Test: HPLC, Michaelis-Menten fit
Assay type: biochemical
Settings: 0.5 μM enzyme, NAD+ 2 mM, 50 mM Tris-HCl pH 8.0, 30 °C

## cinnamaldehyde [2a]
  Km: 10 ± 2.7 mM
